Experimental data taken from PubChem BioAssay AID651974 (The Scripps Research Institute Molecular Screening Center, 2013).
Active and inactive are the calls of the source. How the calls were made is not given here.

Test: compounds lowering VP16-driven luciferase output – cell-based, luminescence, dose response, counter-screen for LRH-1 inverse agonist project, late-stage follow-up (AID 651974)
Conditions: HEK293 cells transfected with Gal4-VP16 and pGL4.31 luciferase reporter

| SMILES | IC50 |
| --- | --- |
| CCn1c(SCC(=O)Nc2ccc(Cl)cc2)nnc1C1CC1 | > 35.9 µM (inactive) |
| CCOc1ccc(NC(=O)CSc2nnc(C(C)C)n2CC)cc1 | > 35.9 µM (inactive) |
| O=C(COc1ccc2c3c(c(=O)oc2c1)CCCC3)NCc1ccccn1 | > 35.9 µM (inactive) |
| CCOc1ccc(NC(=O)CN2CCN(CC(=O)Nc3ccc(OC)cc3)CC2)cc1 | > 35.9 µM (inactive) |
| COC(=O)c1ccc(NC(=O)CN2CCN(c3ccc(Cl)cc3)CC2)cc1 | > 35.9 µM (inactive) |
| COC(=O)c1ccc(NC(=O)CSc2ccc(-c3ccccn3)nn2)cc1 | > 35.9 µM (inactive) |
| COC(=O)c1ccc(NC(=O)CSc2nc3ncccc3[nH]2)cc1 | > 35.9 µM (inactive) |
| O=C(CN1C(=O)CCC1=O)Nc1ccc(Br)cc1 | > 35.9 µM (inactive) |
| COCCn1c(C)cc(/C=C(\C#N)C(=O)OCC(=O)Nc2ccc(S(N)(=O)=O)cc2)c1C | > 35.9 µM (inactive) |
| Cc1ccc(-c2csc(NC(=O)c3ccc([N+](=O)[O-])o3)n2)cc1 | > 35.9 µM (inactive) |
| Cc1ccc(NC(=O)CSc2sc3c(O)cc(=O)[nH]c3c2C#N)c(F)c1 | > 35.9 µM (inactive) |
| CCc1c(C)nc(SCC(=O)Nc2ccc3c(c2)OCCO3)[nH]c1=O | > 35.9 µM (inactive) |
| O=C(COC(=O)c1ccc(Br)cc1)Nc1ccccc1Br | > 35.9 µM (inactive) |
| COc1ccc(-n2c(N)c(C(=O)NCc3cccnc3)sc2=S)cc1 | > 35.9 µM (inactive) |
| CCCc1cc(=O)oc2c(C)c(OCC(=O)NC3CC(C)(C)NC(C)(C)C3)ccc12 | > 35.9 µM (inactive) |
| COC(=O)c1ccc(CNC(=O)COC(=O)c2cc(Cl)nc(Cl)c2)cc1 | > 35.9 µM (inactive) |
| Cc1cc(Br)ccc1NC(=O)CSc1nnc(CN2CCOCC2)n1C | > 35.9 µM (inactive) |
| CCOc1ccc(OCCC(=O)OCC(=O)Nc2ccc3c(c2)OCCO3)cc1 | > 35.9 µM (inactive) |
| Cc1cccc(NC(=O)COC(=O)CN2C(=O)c3ccccc3C2=O)c1C | > 35.9 µM (inactive) |
| COc1ccccc1Oc1nnnn1-c1ccc(C(N)=O)cc1 | > 35.9 µM (inactive) |
| Cc1ccc(NC(=O)COC(=O)C(NS(=O)(=O)c2ccc(Cl)cc2)C(C)O)cc1C (stereo not given) | > 35.9 µM (inactive) |
| Cc1cc(C)c2sc(NC(=O)c3ccc([N+](=O)[O-])o3)nc2c1 | > 35.9 µM (inactive) |
| O=C(COC(=O)c1ccc(=O)n(Cc2ccccc2)n1)Nc1ccc2c(c1)OCCO2 | > 35.9 µM (inactive) |
| COc1ccc(CCNC(=O)CSc2ccc(NC(C)=O)cc2)cc1OC | > 35.9 µM (inactive) |

| SMILES | IC50 |
| --- | --- |
| Cc1ccc(NC(=O)COC(=O)C(NS(=O)(=O)c2ccc(Cl)cc2)C(C)O)c(Br)c1 (stereo not given) | > 35.9 µM (inactive) |
| O=C(Nc1ccc(S(=O)(=O)N2CCOCC2)cc1)c1cccc([N+](=O)[O-])c1 | > 35.9 µM (inactive) |
| O=C(OCC(=O)N1CCN(C(=O)COC(=O)c2ccc(O)cc2O)CC1)c1ccc(O)cc1O | > 35.9 µM (inactive) |
| CCCc1cc(=O)oc2c(C)c(OCC(=O)NCCN3CCOCC3)ccc12 | > 35.9 µM (inactive) |
| O=C(COC(=O)CCN1C(=O)C2CC=CCC2C1=O)NCCc1ccc(F)cc1 (stereo not given) | > 35.9 µM (inactive) |
| CCCc1nnc(SCC(=O)Nc2ccc(C(=O)OCC)cc2)o1 | > 35.9 µM (inactive) |
| CCOc1ccc(NC(=O)CSc2nncc(=O)n2N)cc1 | > 35.9 µM (inactive) |
| Cc1nn(CC(=O)Nc2ccc3c(c2)OCCO3)c(C)c1[N+](=O)[O-] | > 35.9 µM (inactive) |
| COc1ccc(CCNC(=O)COC(=O)c2cc(Cl)nc(Cl)c2)cc1 | > 35.9 µM (inactive) |
| Cc1cc(C)c2nc(NC(=O)c3ccc([N+](=O)[O-])o3)sc2c1 | > 35.9 µM (inactive) |
| COc1ccc(C2(C)NC(=O)N(CC(=O)NCCC3=CCCCC3)C2=O)cc1OC (stereo not given) | > 35.9 µM (inactive) |
| O=C(Nc1nc2c(Cl)cccc2s1)c1ccc([N+](=O)[O-])o1 | > 35.9 µM (inactive) |
| O=C(NCc1ccco1)c1nn(-c2ccccc2)c(=O)c2ccccc12 | > 35.9 µM (inactive) |
| CCCc1cc(=O)oc2cc(C)cc(OCC(=O)NC3CC3)c12 | > 35.9 µM (inactive) |
| Cc1cc(Br)ccc1NC(=O)CN1C(=O)C2CC=CCC2C1=O (stereo not given) | > 35.9 µM (inactive) |
| COc1ccc(NC(=O)CSc2sc3c(O)cc(=O)[nH]c3c2C#N)c(OC)c1 | > 35.9 µM (inactive) |
| CCCc1cc(=O)oc2cc(OCC(=O)NCCc3ccc(S(N)(=O)=O)cc3)ccc12 | > 35.9 µM (inactive) |
| COCC(=O)NC1CCN(CC(=O)Nc2ccc(OC)cc2[N+](=O)[O-])CC1 | > 35.9 µM (inactive) |
| Cc1sc(NC(=O)C(C)C)c(C(=O)Nc2ccccc2)c1C | > 35.9 µM (inactive) |
| COc1ccc(CCNC(=O)COC(=O)Cc2ccccc2[N+](=O)[O-])cc1 | > 35.9 µM (inactive) |
| CCCc1cc(=O)oc2c(C)c(OCC(=O)NCCCn3ccnc3)ccc12 | > 35.9 µM (inactive) |
| CCOc1ccc(NC(=O)COC(=O)c2ccc3c(c2)OCCO3)cc1 | > 35.9 µM (inactive) |
| COc1ccc(NS(=O)(=O)c2ccc(OCC(=O)N3CCN(C)CC3)cc2)cc1Cl | > 35.9 µM (inactive) |
| CC(C)CC1(C)NC(=O)N(CC(=O)Nc2ccc3c(c2)OCCO3)C1=O (stereo not given) | > 35.9 µM (inactive) |

| SMILES | IC50 |
| --- | --- |
| N#CCSc1ccccc1NC(=O)CN1C(=O)C2CC=CCC2C1=O (stereo not given) | > 35.9 µM (inactive) |
| CCOc1ccc(NC(=O)COC(=O)CC2CCCCC2)cc1 | > 35.9 µM (inactive) |
| COc1ccc(CCNC(=O)CSc2nn3c(=O)c(C)nnc3s2)cc1OC | > 35.9 µM (inactive) |
| Cc1cc(=O)oc2c(C)c(OCC(=O)NC3CC(C)(C)NC(C)(C)C3)ccc12 | > 35.9 µM (inactive) |
| O=C(CSc1nnc(CNC(=O)c2c(F)cccc2F)o1)Nc1ccc2c(c1)OCCO2 | > 35.9 µM (inactive) |
| O=C(Nc1ccccc1)c1oc2ccccc2c1NC(=O)C1CC1 | > 35.9 µM (inactive) |
| CC1SC(C)C(=O)N(CC(=O)Nc2ccc3c(c2)OCO3)C1=O (stereo not given) | > 35.9 µM (inactive) |
| O=C(COC(=O)c1ccc[n+]([O-])c1)Nc1ccc([N+](=O)[O-])cc1Cl | > 35.9 µM (inactive) |
| CCc1cc(=O)oc2c(C)c(OCC(=O)NCCN3CCOCC3)ccc12 | > 35.9 µM (inactive) |
| COc1ccc(NC(=O)CSc2ccc3c(c2)OCCO3)cc1 | > 35.9 µM (inactive) |
| COc1ccc(NC(=O)CN2C(=O)NC3(CCCC3)C2=O)cc1 | > 35.9 µM (inactive) |
| Cc1cc(Br)ccc1NC(=O)CN1C(=O)CCC1=O | > 35.9 µM (inactive) |
| O=C(Nc1ccc(Br)cn1)c1ccc([N+](=O)[O-])o1 | > 35.9 µM (inactive) |
| Cc1cccc(NC(=O)COC(=O)Cc2cccs2)c1C | > 35.9 µM (inactive) |
| Cc1ccc2cccc(OCC(=O)NCCC3=CCCCC3)c2n1 | > 35.9 µM (inactive) |
| NC(=O)C1CCN(C(=O)COc2ccc3c4c(c(=O)oc3c2)CCCC4)CC1 | > 35.9 µM (inactive) |
| CCOc1ccc(NC(=O)COC(=O)COc2cccc3c2OC(C)(C)C3)cc1 | > 35.9 µM (inactive) |
| O=C(NCC1CCCO1)c1ccc(NC(=O)c2cccc([N+](=O)[O-])c2)cc1 (stereo not given) | > 35.9 µM (inactive) |
| COc1ccc(NC(=O)CSc2nc(N)c(-c3ccccc3)c(=O)[nH]2)cc1 | > 35.9 µM (inactive) |
| O=C(CSc1nnc(CNC(=O)c2ccccc2F)o1)Nc1ccc2c(c1)OCCO2 | > 35.9 µM (inactive) |
| COc1ccc(NC(=O)CS(=O)(=O)c2ccc(C)cc2)c(OC)c1 | > 35.9 µM (inactive) |
| CN1CCN(c2ccc(S(=O)(=O)N3CCCCC3)cc2NC(=O)COc2ccc([N+](=O)[O-])cc2)CC1 | > 35.9 µM (inactive) |
| CC(=O)c1ccc(OC(C)C(=O)OCC(=O)NCCc2ccccc2)cc1 (stereo not given) | > 35.9 µM (inactive) |
| CC(=O)Nc1ccc(N=c2cc([N+](=O)[O-])cc(Cl)n2O)cc1 | > 35.9 µM (inactive) |

| SMILES | IC50 |
| --- | --- |
| CCCc1cc(=O)oc2cc(OCC(=O)NCc3ccccn3)ccc12 | > 35.9 µM (inactive) |
| COc1ccc(NC(=O)COC(=O)c2c(-c3ccccc3)noc2C)cc1 | > 35.9 µM (inactive) |
| COc1ccc(CC(NC(C)=O)C(=O)NC2CCN(c3nnnn3-c3ccccc3)CC2)cc1 (stereo not given) | > 35.9 µM (inactive) |
| O=C1CCCN2N=C(SCC(=O)Nc3ccc(Br)cc3)SC2=N1 | > 35.9 µM (inactive) |
| CCOc1ccc(NC(=O)CSc2nc3[nH]ncc3c(=O)[nH]2)cc1 | > 35.9 µM (inactive) |
| CCCN(CC(=O)Nc1ccc(C(C)=O)cc1)CC(=O)Nc1ccccc1C | > 35.9 µM (inactive) |
| O=c1[nH]c(Nc2ccc3c(c2)OCCO3)nnc1Cc1ccccc1 | > 35.9 µM (inactive) |
| CCOc1ccc(OCCN2C(=O)NC(Cc3c[nH]c4ccccc34)C2=O)cc1 (stereo not given) | > 35.9 µM (inactive) |
| CC(=O)Nc1ncc(Cc2cc(Cl)ccc2Cl)s1 | > 35.9 µM (inactive) |
| COc1ccc(NC(=O)CSc2nnc3ccc(-c4cccnc4)nn23)cc1OC | > 35.9 µM (inactive) |
| Cc1cc(OCC(=O)Nc2nccs2)c2c(C)cc(=O)oc2c1 | > 35.9 µM (inactive) |
| CC(=O)c1ccc(NC(=O)C(C)O/N=C(\N)c2ccccc2)cc1 (stereo not given) | > 35.9 µM (inactive) |
| CCc1cc(=O)[nH]c(SCC(=O)Nc2ccc3c(c2)OCCO3)n1 | > 35.9 µM (inactive) |
| COc1ccc(CCNC(=O)COC(=O)C23CC4CC(CC(C4)C2)C3)cc1 | > 35.9 µM (inactive) |
| COC(=O)c1ccc(NC(=O)CSc2nn3c(=O)c(C)nnc3s2)cc1 | > 35.9 µM (inactive) |
| COC(=O)c1ccc(NC(=O)CSc2nncn2-c2cccnc2)cc1 | > 35.9 µM (inactive) |
| Cc1ccc(NC(=O)CSc2nc3[nH]c(=O)cc(O)c3s2)c(Br)c1 | > 35.9 µM (inactive) |
| COC(=O)c1ccc(NC(=O)COc2cccc(-n3cnnn3)c2)cc1 | > 35.9 µM (inactive) |
| Cc1ccn2c(=O)nc(SCC(=O)Nc3ccc4c(c3)OCCO4)nc2c1 | > 35.9 µM (inactive) |
| COc1ccc(CCNC(=O)CSc2nc3[nH]c(=O)cc(O)c3s2)cc1 | > 35.9 µM (inactive) |
| COc1ccc(NC(=O)COC(=O)c2cc(S(=O)(=O)N3CCCC3)ccc2O)cc1 | > 35.9 µM (inactive) |
| CCOc1ccc(NC(=O)CSc2nccn(-c3ccc4c(c3)OCCO4)c2=O)cc1 | > 35.9 µM (inactive) |
| O=C(COc1ccc2c3c(c(=O)oc2c1)CCC3)NCc1ccncc1 | > 35.9 µM (inactive) |
